Test results published in US20100316529A1, “Anti-Microbial Systems and Methods” (priority 2001, published 2010).
Where “and” joins values, the source holds several entries; their conditions need not be identical. Identical values can stand only once.

Key:
Test in all cases: EDTA salt dilution test, MIC/MBC
Format in all cases: cell-based
E. coli = conditions: three entries; for MBC, minimum concentration required to kill an entire population: Exhibit A1
Experimental: (§1) Protocol one: Broth dilutions:
(§2) Inoculate a 25 ml nutrient broth (Oxoid No2) in a sterile universal container with one of the following organisms; Pseudomonas aeruginosa, Proteus Mirabilis, E. coli, Klebsiella pneumoniae, Staph aureus, Coagulase negative staphylococci, Enterococcus faecalis or MRSA.
(§3) Incubate the broth at 37° C. overnight.
(§4) To make these concentrations put the EDTA needed for 10 mLs in only 9 mLs of broth in sterile universal containers, as this will be diluted further when the organisms are added.
(§5) Dilute the overnight broth cultures to 10^7 organisms/mL using more sterile nutrient broth.
(§6) Add 1 mL of this diluent to each of the EDTA series broths. This gives a final concentration of 10^6 organism/mL in the EDTA broths.
(§7) Incubate for 18 hours at 37° C.
(§8) Next day visually read the MIC's by observing the turbidity of the broths.
(§9) Plate out 1 uL of each dilution onto fresh blood agar plate and spread using a sterile plastic spreader.
(§10) Incubate overnight at 37° C.
(§11) Next day read the MBC's by performing colony counts.

Ent. faecalis = conditions: for MBC, minimum concentration required to kill an entire population: Exhibit A1; for MIC, minimum concentration required to inhibit growth: Exhibit A2
Experimental: as §1, §2, §3, §4, §5, §6, §7, §8, §9, §10, §11

Kleb. pnemoniae = conditions: two entries; for MBC, minimum concentration required to kill an entire population: Exhibit A1; for MIC, minimum concentration required to inhibit growth: Exhibit A2
Experimental: as §1, §2, §3, §4, §5, §6, §7, §8, §9, §10, §11

MRSA = conditions: five entries; for MBC, minimum concentration required to kill an entire population: Exhibit A1; for MIC, minimum concentration required to inhibit growth: Exhibit A2
Experimental: as §1, §2, §3, §4, §5, §6, §7, §8, §9, §10, §11

Proteus mirabilis = conditions: two entries; for MBC, minimum concentration required to kill an entire population: Exhibit A1; for MIC, minimum concentration required to inhibit growth: Exhibit A2
Experimental: as §1, §2, §3, §4, §5, §6, §7, §8, §9, §10, §11

Pseudomonas aeruginosa = conditions: two entries; for MBC, minimum concentration required to kill an entire population: Exhibit A1; for MIC, minimum concentration required to inhibit growth: Exhibit A2
Experimental: as §1, §2, §3, §4, §5, §6, §7, §8, §9, §10, §11

Pseudomonas sp. = conditions: for MBC, minimum concentration required to kill an entire population: Exhibit A1; for MIC, minimum concentration required to inhibit growth: Exhibit A2
Experimental: as §1, §2, §3, §4, §5, §6, §7, §8, §9, §10, §11

S. aureus = conditions: five entries; for MBC, minimum concentration required to kill an entire population: Exhibit A1; for MIC, minimum concentration required to inhibit growth: Exhibit A2
Experimental: as §1, §2, §3, §4, §5, §6, §7, §8, §9, §10, §11

S. capitis = conditions: two entries; for MBC, minimum concentration required to kill an entire population: Exhibit A1
Experimental: as §1, §2, §3, §4, §5, §6, §7, §8, §9, §10, §11

S. epidermidis = conditions: two entries; for MBC, minimum concentration required to kill an entire population: Exhibit A1; for MIC, minimum concentration required to inhibit growth: Exhibit A2
Experimental: as §1, §2, §3, §4, §5, §6, §7, §8, §9, §10, §11

S. lentus = conditions: for MBC, minimum concentration required to kill an entire population: Exhibit A1; for MIC, minimum concentration required to inhibit growth: Exhibit A2
Experimental: as §1, §2, §3, §4, §5, §6, §7, §8, §9, §10, §11

S. simulans = conditions: for MBC, minimum concentration required to kill an entire population: Exhibit A1; for MIC, minimum concentration required to inhibit growth: Exhibit A2
Experimental: as §1, §2, §3, §4, §5, §6, §7, §8, §9, §10, §11

S. xylosus = conditions: for MBC, minimum concentration required to kill an entire population: Exhibit A1; for MIC, minimum concentration required to inhibit growth: Exhibit A2
Experimental: as §1, §2, §3, §4, §5, §6, §7, §8, §9, §10, §11

VRE = conditions: two entries
Experimental: as §1, §2, §3, §4, §5, §6, §7, §8, §9, §10, §11

Ent. faeculm = conditions: for MIC, minimum concentration required to inhibit growth: Ent. faecuim, Exhibit A2; for MBC, minimum concentration required to kill an entire population: Ent. faeculm, Exhibit A1
Kleb. oxytoca = conditions: for MBC, minimum concentration required to kill an entire population: Exhibit A1; for MIC, minimum concentration required to inhibit growth: Exhibit A2
Kleb. ornitholytica = conditions: for MBC, minimum concentration required to kill an entire population: Exhibit A1; for MIC, minimum concentration required to inhibit growth: Exhibit A2
Ent. cloacae = conditions: three entries
Steno. maltophilia = conditions: for MBC, minimum concentration required to kill an entire population: Exhibit A1; for MIC, minimum concentration required to inhibit growth: Exhibit A2
Cornyeform amycolatum = conditions: for MBC, minimum concentration required to kill an entire population: Exhibit A1
Coryneform strait/amy = conditions: for MBC, minimum concentration required to kill an entire population: Exhibit A1; for MIC, minimum concentration required to inhibit growth: Exhibit A2
Proteus vulgaris = conditions: for MBC, minimum concentration required to kill an entire population: Exhibit A1; for MIC, minimum concentration required to inhibit growth: Exhibit A2

## O=C([O-])CN(CCN(CC(=O)[O-])CC(=O)[O-])CC(=O)[O-].[Mg+2].[Na+].[Na+] [Magnesium disodium EDTA]
E. coli
  MBC, minimum concentration required to kill an entire population: >30 mg/mL
E. coli; Exhibit A2
  MIC, minimum concentration required to inhibit growth: >30 mg/mL
Ent. faecalis
  MBC, minimum concentration required to kill an entire population: >30 mg/mL
  MIC, minimum concentration required to inhibit growth: >30 mg/mL
Kleb. pnemoniae
  MBC, minimum concentration required to kill an entire population: >30 mg/mL
  MIC, minimum concentration required to inhibit growth: >30 mg/mL
MRSA
  MBC, minimum concentration required to kill an entire population: >30 mg/mL
  MIC, minimum concentration required to inhibit growth: >30 mg/mL
Proteus mirabilis
  MBC, minimum concentration required to kill an entire population: >30 mg/mL
  MIC, minimum concentration required to inhibit growth: >30 mg/mL
Pseudomonas aeruginosa
  MBC, minimum concentration required to kill an entire population: >30 mg/mL
  MIC, minimum concentration required to inhibit growth: >30 mg/mL
Pseudomonas sp.
  MBC, minimum concentration required to kill an entire population: >30 mg/mL
  MIC, minimum concentration required to inhibit growth: >30 mg/mL
S. aureus
  MBC, minimum concentration required to kill an entire population: >30 mg/mL
  MIC, minimum concentration required to inhibit growth: >30 mg/mL
S. capitis
  MBC, minimum concentration required to kill an entire population: >30 mg/mL
S. epidermidis
  MBC, minimum concentration required to kill an entire population: 30 mg/mL
  MIC, minimum concentration required to inhibit growth: 6 mg/mL
S. lentus
  MBC, minimum concentration required to kill an entire population: >30 mg/mL
  MIC, minimum concentration required to inhibit growth: 6 mg/mL
S. simulans
  MBC, minimum concentration required to kill an entire population: >30 mg/mL
  MIC, minimum concentration required to inhibit growth: 1.5 mg/mL
S. xylosus
  MBC, minimum concentration required to kill an entire population: >30 mg/mL
  MIC, minimum concentration required to inhibit growth: 2 mg/mL
VRE; Exhibit A1
  MBC, minimum concentration required to kill an entire population: >30 mg/mL
VRE; Exhibit A2
  MIC, minimum concentration required to inhibit growth: 25 mg/mL and >30 mg/mL
Ent. faeculm
  MIC, minimum concentration required to inhibit growth: 1.5 mg/mL
  MBC, minimum concentration required to kill an entire population: >30 mg/mL
Kleb. oxytoca
  MBC, minimum concentration required to kill an entire population: >30 mg/mL
  MIC, minimum concentration required to inhibit growth: >30 mg/mL
Kleb. ornitholytica
  MBC, minimum concentration required to kill an entire population: >30 mg/mL
  MIC, minimum concentration required to inhibit growth: >30 mg/mL
Ent. cloacae; Exhibit A1
  MBC, minimum concentration required to kill an entire population: >30 mg/mL
Ent. cloacae; Exhibit A2
  MIC, minimum concentration required to inhibit growth: >30 mg/mL
Steno. maltophilia
  MBC, minimum concentration required to kill an entire population: >30 mg/mL
  MIC, minimum concentration required to inhibit growth: >30 mg/mL
Cornyeform amycolatum
  MBC, minimum concentration required to kill an entire population: 4 mg/mL
Cornyeform amycolatum; Exhibit A2
  MIC, minimum concentration required to inhibit growth: <0.5 mg/mL
Coryneform strait/amy
  MBC, minimum concentration required to kill an entire population: 4 mg/mL
  MIC, minimum concentration required to inhibit growth: <0.5 mg/mL
Proteus vulgaris
  MBC, minimum concentration required to kill an entire population: .30 mg/mL
  MIC, minimum concentration required to inhibit growth: >30 mg/mL

## O=C([O-])CN(CCN(CC(=O)[O-])CC(=O)[O-])CC(=O)[O-].[Cu+2].[Na+].[Na+] [Cupric disodium EDTA]
E. coli
  MBC, minimum concentration required to kill an entire population: >30 mg/mL
Ent. faecalis
  MBC, minimum concentration required to kill an entire population: <0.5 mg/mL
  MIC, minimum concentration required to inhibit growth: <0.5 mg/mL
Kleb. pnemoniae
  MBC, minimum concentration required to kill an entire population: >30 mg/mL
  MIC, minimum concentration required to inhibit growth: >30 mg/mL
MRSA
  MBC, minimum concentration required to kill an entire population: <0.5 mg/mL
  MIC, minimum concentration required to inhibit growth: <0.5 mg/mL
Proteus mirabilis
  MBC, minimum concentration required to kill an entire population: >30 mg/mL
  MIC, minimum concentration required to inhibit growth: 6 mg/mL
Pseudomonas aeruginosa
  MBC, minimum concentration required to kill an entire population: >30 mg/mL
  MIC, minimum concentration required to inhibit growth: >30 mg/mL
Pseudomonas sp.
  MBC, minimum concentration required to kill an entire population: >30 mg/mL
  MIC, minimum concentration required to inhibit growth: >30 mg/mL
S. aureus
  MBC, minimum concentration required to kill an entire population: <0.5 mg/mL
  MIC, minimum concentration required to inhibit growth: <0.5 mg/mL
S. capitis
  MBC, minimum concentration required to kill an entire population: <0.5 mg/mL
S. capitis; Exhibit A2
  MIC, minimum concentration required to inhibit growth: <0.5 mg/mL
S. epidermidis
  MBC, minimum concentration required to kill an entire population: <0.5 mg/mL
  MIC, minimum concentration required to inhibit growth: <0.5 mg/mL
S. lentus
  MBC, minimum concentration required to kill an entire population: <0.5 mg/mL
  MIC, minimum concentration required to inhibit growth: <0.5 mg/mL
S. simulans
  MBC, minimum concentration required to kill an entire population: <0.5 mg/mL
  MIC, minimum concentration required to inhibit growth: <0.5 mg/mL
S. xylosus
  MBC, minimum concentration required to kill an entire population: <0.5 mg/mL
  MIC, minimum concentration required to inhibit growth: <0.5 mg/mL
Ent. faeculm
  MIC, minimum concentration required to inhibit growth: <0.5 mg/mL
  MBC, minimum concentration required to kill an entire population: <0.5 mg/mL
Kleb. oxytoca
  MBC, minimum concentration required to kill an entire population: >30 mg/mL
  MIC, minimum concentration required to inhibit growth: >30 mg/mL
Kleb. ornitholytica
  MBC, minimum concentration required to kill an entire population: >30 mg/mL
  MIC, minimum concentration required to inhibit growth: >30 mg/mL
Steno. maltophilia
  MBC, minimum concentration required to kill an entire population: >30 mg/mL
  MIC, minimum concentration required to inhibit growth: 6 mg/mL
Cornyeform amycolatum
  MBC, minimum concentration required to kill an entire population: <0.5 mg/mL
Coryneform strait/amy
  MBC, minimum concentration required to kill an entire population: <0.5 mg/mL
  MIC, minimum concentration required to inhibit growth: <0.5 mg/mL
Proteus vulgaris
  MBC, minimum concentration required to kill an entire population: >30 mg/mL
  MIC, minimum concentration required to inhibit growth: >30 mg/mL
